From ChEMBL document CHEMBL2440082, “New non-symmetrical choline kinase inhibitors” (Bioorg Med Chem, 2013)
Active and inactive are the calls of the source. The rule behind the calls is not given here.

Key:
HepG2 [1] = experiment: Cytotoxicity against human HepG2 cells at 50 uM after 24 hrs by crystal violet-staining assay; assay type: cell-based; conditions: hepg2, 24 h
Homo sapiens [2] = species on record: Homo sapiens; experiment: Inhibition of human ChoK activity assessed as inhibition of incorporation of [14C] from methyl[14C]choline into phosphocholine at 50 uM after 20 mins by scintillation counting
HepG2 [3] = experiment: Antiproliferative activity against human HepG2 cells at 1 uM after 24 hrs by crystal violet-staining assay; assay type: functional
HepG2 [4] = experiment: Antiproliferative activity against human HepG2 cells at 10 uM after 24 hrs by crystal violet-staining assay; assay type: functional
[5] = Inhibition of human ChoK activity assessed as inhibition of incorporation of [14C] from methyl[14C]choline into phosphocholine after 20 mins by scintillation counting
HepG2 [6] = experiment: Antiproliferative activity against human HepG2 cells at 5 uM after 24 hrs by crystal violet-staining assay; assay type: functional
Homo sapiens [7] = species on record: Homo sapiens; experiment: Inhibition of human ChoK activity assessed as inhibition of incorporation of [14C] from methyl[14C]choline into phosphocholine at 10 uM after 20 mins by scintillation counting
HepG2 [8] = experiment: Antiproliferative activity against human HepG2 cells at 50 uM after 24 hrs by crystal violet-staining assay; assay type: functional
HepG2 [9] = experiment: Cytotoxicity against human HepG2 cells at 10 uM after 24 hrs by crystal violet-staining assay; assay type: cell-based; conditions: hepg2, 24 h

| inhibition (Homo sapiens [2]) | IC50 [5] [µM] | inhibition (Homo sapiens [7]) | Compound | Activity (HepG2 [1]) | Activity (HepG2 [3]) | Activity (HepG2 [4]) | Activity (HepG2 [6]) | Activity (HepG2 [8]) | Activity (HepG2 [9]) |
| --- | --- | --- | --- | --- | --- | --- | --- | --- | --- |
| 28.2% |  | inactive | Oc1cccc(NCc2ccc(-c3ccc(C[n+]4ccc(N5CCCC5)cc4)cc3)cc2)c1.[Br-] | Toxic | 48.52% |  | 52.99% |  | Toxic |
| 12.9% |  | 3.8% | Nc1cccc(OCc2ccc(C[n+]3ccc(N4CCCC4)cc3)cc2)c1 |  | inactive | inactive | inactive | inactive |  |
| 20.8% |  | inactive | Nc1cccc(OCc2ccc(-c3ccc(C[n+]4ccc(N5CCCC5)cc4)cc3)cc2)c1.[Br-] | Toxic | 40.52% |  | 57.24% |  | Toxic |
| inactive |  | inactive | Nc1cccc(OCc2ccc(CCc3ccc(C[n+]4ccc(N5CCCC5)cc4)cc3)cc2)c1.[Br-] | Toxic | 55.37% |  | 76.04% |  | Toxic |
| 18% |  | inactive | Oc1cccc(NCc2ccc(CCCCc3ccc(C[n+]4ccc(N5CCCC5)cc4)cc3)cc2)c1.[Br-] | Toxic | inactive |  | 48.96% |  | Toxic |
| 21.6% |  | inactive | Nc1cccc(OCc2ccc(CCCCc3ccc(C[n+]4ccc(N5CCCC5)cc4)cc3)cc2)c1.[Br-] | Toxic | 57.69% |  | 83.21% |  | Toxic |
| 66.2% | 7.89 | 54.2% | CN(C)c1cc[n+](Cc2ccc(-c3ccc(CNc4cccc(O)c4)cc3)cc2)cc1.[Br-] |  | inactive | 9.86% | inactive | 24.4% |  |
| 39.5% |  | inactive | CN(C)c1cc[n+](Cc2ccc(CCc3ccc(CNc4cccc(O)c4)cc3)cc2)cc1.[Br-] |  | 5.56% | 34.1% | 18.43% | 73.4% |  |
| 13.6% |  | inactive | Oc1cccc(NCc2ccc(CCc3ccc(C[n+]4ccc(N5CCCC5)cc4)cc3)cc2)c1.[Br-] | Toxic | 11.19% |  | 67.39% |  | Toxic |
| 41.3% |  | inactive | Oc1cccc(NCc2ccc(C[n+]3ccc(N4CCCC4)cc3)cc2)c1.[Br-] |  | 2.91% | 9.54% | 13.43% | 8.53% |  |

Continued, compound first:

| Compound | inhibition (Homo sapiens [2]) | IC50 [5] [µM] | inhibition (Homo sapiens [7]) | Activity (HepG2 [1]) | Activity (HepG2 [3]) | Activity (HepG2 [4]) | Activity (HepG2 [6]) | Activity (HepG2 [8]) | Activity (HepG2 [9]) |
| --- | --- | --- | --- | --- | --- | --- | --- | --- | --- |
| CN(C)c1cc[n+](Cc2ccc(-c3ccc(COc4cccc(N)c4)cc3)cc2)cc1.[Br-] | 79.8% | 6.37 | 54.4% | Toxic | 8.5% | 24.4% | 16.23% |  |  |
| CN(C)c1cc[n+](Cc2ccc(CNc3cccc(O)c3)cc2)cc1.[Br-] | 52.4% |  | 27.5% |  | 7.74% | 24.38% | 13.01% | 54.51% |  |
| CN(C)c1cc[n+](Cc2ccc(CCCCc3ccc(COc4cccc(N)c4)cc3)cc2)cc1.[Br-] | inactive |  | inactive |  | 10.14% | 22.68% | 18.32% | 46.67% |  |
| CN(C)c1cc[n+](Cc2ccc(CCCCc3ccc(CNc4cccc(O)c4)cc3)cc2)cc1.[Br-] | 12.9% |  | 3.8% |  | 4.58% | 30.86% | 13.09% | 71.1% |  |
| CN(C)c1cc[n+](Cc2ccc(CCc3ccc(COc4cccc(N)c4)cc3)cc2)cc1.[Br-] | 21.9% |  | inactive |  | 7.42% | 30.53% | 6.98% | 59.54% |  |
| CN(C)c1cc[n+](Cc2ccc(-c3ccc(Cn4cnc(N)c5ncnc4-5)cc3)cc2)cc1.[Br-] | 71.4% |  | 62.3% |  |  | 10% |  | 7% |  |
| CN(C)c1cc[n+](Cc2ccc(CCCCc3ccc(Cn4cnc5c(N)ncnc54)cc3)cc2)cc1.[Br-] | 89.7% |  | 66.7% |  |  | 10.2% |  | 45.5% |  |
| CN(C)c1cc[n+](Cc2ccc(COc3cccc(N)c3)cc2)cc1.[Br-] | 37.7% |  | 14.8% |  | inactive | inactive | inactive | 22.48% |  |
